Results taken from patent publication US5858327A, “Hydrazino-type N2 S2 radionuclide chelating compounds” (Resolutions Pharmaceuticals, Inc., priority 1996, dated 1999).
Counter-ions that a name gives are not always drawn.

Assay: In vivo distribution of 99mTc-labelled chelators in rats
Design: species or system male Wistar rats
Conditions: for GI tract accumulation/localization (share of the dose) / dose remaining in the blood / accumulation in the kidney / localization in urine: male Wistar rats; for GI tract accumulation/localization (share of the dose): 99mTc-labelled chelator 200 μL (200 μCi) i.v. tail vein, organs counted after 120 min images; for dose remaining in the blood / accumulation in the kidney / localization in urine: 99mTc-labelled chelator i.v. tail vein; for dose remaining in the blood: after 120 min images, blood volume assumed 8% body weight; for accumulation in the kidney: examples 1 and 2 approximately equal
Experimental: Approximately 1 mg of each chelator was dissolved in 200 μL saline or 200 μL ethanol:water (1:1) in a tube. To the tube was added 100-300 μL sodium ^99m Tc-pertechnetate (5-15 mCi), 100 μL phosphate buffer (0.25M, pH 7.4), and 200 μL of a solution containing 50 μg stannous chloride dihydrate and 40 mg sodium tartrate dihydrate. The tube was capped tightly and placed in a boiling water bath for 10 minutes.
After cooling, the reaction mixture was loaded onto a C-18 solid-phase extraction cartridge (Sep-Pak) which had been activated with 5 mL methanol and 5 mL 1 mM HCl. The cartridge was washed with 5 mM HCl and the eluate was collected in a test tube. The cartridge was then dried by forcing air through it. The product was eluted with 2 mL ethanol:water (1:1) and collected in a separate tube. The cartridge was placed in another tube and the three tubes were assayed in a radionuclide dose calibrator (ionization chamber). The yield was calculated as the activity in the ethanol:water eluate divided by the total activity in the three tubes under the assumption that the desired product was relatively lipophilic. A less lipophilic chelator would elute partially in the acid wash and the apparent yield would be low.
Distribution within rats of selected chelators and a reference chelator were determined using established protocols. Briefly, male Wistar rats (Charles River, 200 g) were anaesthetized with somnitol (40 to 50 mg/kg) and 200 μL of the labelled chelator (ie. 200 μCi) was injected intravenously via the tail vein. Serial whole-body scintigrams were acquired for first 10 minutes, After further images were obtained at 60 and 120 minutes, the rat was killed with anaesthesia and samples of organs (blood, heart, lung, liver, spleen, kidney, muscle, GI tract) were weighed and counted in either a well-type gamma counter or in a gamma dose calibrator. Dose calculations were made based on the assumption that rats weighed 200 g and that the blood volume constituted 8% body weight. All results were corrected for the residual dose in the tail.

Row | Structure (SMILES) | GI tract excretion (in words) (in comparison with the N2S2 reference chelator, rats, i.v.) | GI tract accumulation/localization (share of the dose) | dose remaining in the blood | accumulation in the kidney | localization in urine | clearance from the blood (and other tissues), in words (rats, i.v.) | route of elimination (rats, i.v.)
1 | O=C(CSC(=O)c1ccccc1)NNC(=O)NNC(=O)CSC(=O)c1ccccc1 [Example 1, N,N'-bis(S-benzoylmercaptoacetyl)-carbohydrazide] | remarkably low | about 9% | about 14% | 7-14% |  |  | 
2 | N=C(NNC(=O)CSC(=O)c1ccccc1)NNC(=O)CSC(=O)c1ccccc1 [Example 2, N,N'-bis-(S-benzoylmercaptoacetyl)-1,3-diaminoguanidine hydrochloride] |  | 30% | about 10% | 7-14% | 20% |  | 
3 | O=C(CNC(=O)CSC(=O)c1ccccc1)CNC(=O)CSC(=O)c1ccccc1 [Example 3, N,N'-bis-(S-benzoylmercaptoacetyl)-1,3-diaminoacetone] |  | 50% | 3% |  | 25% | fastest clearance from the blood and other tissues | mainly eliminated through the liver and GI tract
